The numbers were not newly measured in US20030065040A1, “Pharmaceutical compositions including sampatrilat dispersed in a lipoidic vehicle” (priority 2001, published 2003), which cites them from elsewhere.

Read-outs that look alike come from different tables or passages of the source.

The conditions of series [1]: dogs; reported to be as low as.
For series [2] the following is noted: man; reported to be as low as.

Turning to `CS(=O)(=O)N[C@@H](CCCCN)C(=O)NC[C@H](CC1(C(=O)N[C@@H](Cc2ccc(O)cc2)C(=O)O)CCCC1)C(=O)O` [Sampatrilat, sampatrilat], the results for the oral bioavailability in series [1] and in series [2] were 5% and 2%, respectively.
